For 37 compounds, IC50 results are on record in patent US9187484B2 (Southern Research Institute, priority 2012, dated 2015).

Broadly, the IC50 is the concentration that gives 50% inhibition.

In the assay the target is T1, LRRK2 (G2019S) (Homo sapiens, UniProt Q5S007, G2019S).
T1 construct: Recombinant GST-LRRK2 (delta970), purified from baculovirus infected insect cells (SF9); GST (N); host or cells: baculovirus infected insect cells (SF9)
Nature of the assay: LRRK2 inhibition, radiometric kinase assay with recombinant GST-LRRK2 (delta970) and peptide substrate. The assay is classed as biochemical. Conditions: GST-LRRK2 (delta970) G2019S 30 nM, ATP ~52 μM (Km), 30 min at 30° C. The protocol:
Compounds were assessed for inhibition of LRRK2 inhibition using the following procedure.
Recombinant GST-LRRK2 (delta970), purified from baculovirus infected insect cells (SF9), at least 90% pure and either wild-type sequence or bearing the pathogenic G2019S mutation, was combined into a kinase buffer at 30 nM concentration. Kinase buffer consists of 50 mM Tris HCl pH 7.4, 1 mM EDTA, and 50 μM peptide substrate (amino acid sequence […]). Experimental compounds or control (no compound) were added at desired concentrations in DMSO and water, where final concentration of DMSO in kinase reactions was 0.1% for all drug concentrations. Activation buffer that consists of a final concentration in the reactions of 10 mM MgCl2 and ATP (˜92 μM for WT-LRRK2 reactions and ˜52 μM for G2019S-LRRK2, which represent respective Km ATP concentrations) were added to each reaction, in addition to 0.5 μCi of gamma-32-P-dATP per reaction. Reactions were incubated at 1400 RPM at 30° C. for 30 min. and then spotted in triplicate directly onto a slot-blot apparatus fitted with phospho-cellulose paper and allowed to dry. Each slot was then washed with 10 mM phosphoric acid buffer until beta-radiation could not be detected in eluted wash buffer, usually ˜1 mL per slot. Paper within each slot were excised and radiation measured by liquid scintillation.

T1 sequence (Q5S007 970-2527 G2019S limits assumed): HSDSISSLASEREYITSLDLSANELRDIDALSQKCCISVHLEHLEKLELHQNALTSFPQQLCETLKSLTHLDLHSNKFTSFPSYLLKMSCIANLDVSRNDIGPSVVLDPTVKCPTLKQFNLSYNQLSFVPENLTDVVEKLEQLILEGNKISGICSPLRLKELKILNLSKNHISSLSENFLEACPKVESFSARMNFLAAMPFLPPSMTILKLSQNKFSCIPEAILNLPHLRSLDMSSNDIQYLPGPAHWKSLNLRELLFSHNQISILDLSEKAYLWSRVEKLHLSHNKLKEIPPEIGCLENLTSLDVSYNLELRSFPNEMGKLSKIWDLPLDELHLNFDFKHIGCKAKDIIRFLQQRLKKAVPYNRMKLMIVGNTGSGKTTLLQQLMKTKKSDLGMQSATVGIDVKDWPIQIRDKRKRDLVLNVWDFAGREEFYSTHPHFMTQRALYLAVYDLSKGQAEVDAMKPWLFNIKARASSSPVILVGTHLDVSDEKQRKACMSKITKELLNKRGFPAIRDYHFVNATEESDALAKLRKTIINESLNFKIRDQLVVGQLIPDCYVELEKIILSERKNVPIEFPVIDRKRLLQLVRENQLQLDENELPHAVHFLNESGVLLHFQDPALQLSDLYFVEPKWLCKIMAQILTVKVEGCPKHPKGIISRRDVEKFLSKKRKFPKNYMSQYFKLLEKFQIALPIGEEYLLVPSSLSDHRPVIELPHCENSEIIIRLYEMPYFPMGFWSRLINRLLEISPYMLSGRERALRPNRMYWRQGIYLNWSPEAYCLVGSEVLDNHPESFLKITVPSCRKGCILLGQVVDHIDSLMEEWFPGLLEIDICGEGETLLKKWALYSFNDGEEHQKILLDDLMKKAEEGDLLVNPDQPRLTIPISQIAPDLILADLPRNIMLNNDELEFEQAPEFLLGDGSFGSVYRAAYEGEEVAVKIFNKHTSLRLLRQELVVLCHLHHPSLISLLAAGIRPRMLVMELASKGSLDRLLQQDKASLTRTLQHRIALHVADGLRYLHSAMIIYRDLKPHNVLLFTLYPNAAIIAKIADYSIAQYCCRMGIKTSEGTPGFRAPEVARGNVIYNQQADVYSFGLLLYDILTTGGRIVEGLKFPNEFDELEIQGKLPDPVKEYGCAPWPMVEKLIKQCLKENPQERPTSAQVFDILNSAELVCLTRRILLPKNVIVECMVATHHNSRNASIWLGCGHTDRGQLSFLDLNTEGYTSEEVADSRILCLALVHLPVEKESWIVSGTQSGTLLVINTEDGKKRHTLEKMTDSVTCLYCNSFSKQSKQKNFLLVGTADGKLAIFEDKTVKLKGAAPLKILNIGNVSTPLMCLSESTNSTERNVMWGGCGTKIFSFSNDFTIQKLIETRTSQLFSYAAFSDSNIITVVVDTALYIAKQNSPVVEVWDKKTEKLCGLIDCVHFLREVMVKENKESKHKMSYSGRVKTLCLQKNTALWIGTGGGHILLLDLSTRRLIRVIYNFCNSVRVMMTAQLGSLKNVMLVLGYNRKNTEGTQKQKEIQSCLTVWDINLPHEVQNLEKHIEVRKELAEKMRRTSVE

Regarding `CCC(Sc1ccc2nnc(-c3ccccc3F)n2n1)C(=O)O` (stereo not shown) [Example 55, 2-((3-(2-fluorophenyl)-[1,2,4]triazolo[4,3-b]pyridazin-6-yl)thio)butanoic acid], the IC50 was in the range of 100 to 1000 nM. Take `CCCCC(Sc1ccc2nnc(-c3cccs3)n2n1)C(=O)O` (stereo not shown) [Example 41, 2-((3-(thiophen-2-yl)-[1,2,4]triazolo[4,3-b]pyridazin-6-yl)thio)hexanoic acid]: the IC50 was 1000 to 5000 nM. As to `CCC(Nc1ccc2nnc(-c3cccs3)n2n1)C(N)=O` (stereo not shown) [Example 99, 2-((3-(thiophen-2-yl)-[1,2,4]triazolo[4,3-b]pyridazin-6-yl)amino)butanamide], the IC50 is at least 5000 nM. In the case of `CCC(Oc1ccc2nnc(-c3cccs3)n2n1)C(=O)O` (stereo not shown) [Example 83, 2-((3-(thiophen-2-yl)-[1,2,4]triazolo[4,3-b]pyridazin-6-yl)oxy)butanoic acid], the IC50 was at least 5000 nM. Consider `CC(Sc1ccc2nnc(-c3ncccn3)n2n1)C(=O)N1CCCCC1` (stereo not shown) [Example 109, 1-(piperidin-1-yl)-2-((3-(pyrimidin-2-yl)-[1,2,4]triazolo[4,3-b]pyridazin-6-yl)thio)propan-1-one], for which the IC50 was in the range of 100 to 1000 nM.

In the case of `NC(=O)CSc1ccc2nnc(-c3ccncc3)n2n1` [Example 4, 2-((3-(pyridin-4-yl)-[1,2,4]triazolo[4,3-b]pyridazin-6-yl)thio)acetamide], the IC50 was at least 5000 nM. As for `O=C(O)CSc1ccc2nnc(-c3ccc(F)cc3)n2n1` [Example 17, 2-((3-(4-fluorophenyl)-[1,2,4]triazolo[4,3-b]pyridazin-6-yl)thio)acetic acid], the IC50 is at least 5000 nM. For the compound `CCC(Sc1ccc2nnc(-c3ccccc3F)n2n1)C(=O)N1CCCCC1` (stereo not shown) [Example 94, 2-((3-(2-fluorophenyl)-[1,2,4]triazolo[4,3-b]pyridazin-6-yl)thio)-1-(piperidin-1-yl)butan-1-one], the half-maximal inhibitory concentration (IC50) fell in the range of 100 to 1000 nM. With `CCOC(=O)C(CC)Sc1ccc2nnc(-c3cccc(F)c3)n2n1` (stereo not shown) [Example 75, ethyl 2-((3-(3-fluorophenyl)-[1,2,4]triazolo[4,3-b]pyridazin-6-yl)thio)butanoate], the IC50 is 1000 to 5000 nM. With `CC(Sc1ccc2nnc(-c3nccs3)n2n1)C(=O)N1CCCCC1` (stereo not shown) [Example 125, 1-(piperidin-1-yl)-2-((3-(thiazol-2-yl)-[1,2,4]triazolo[4,3-b]pyridazin-6-yl)thio)propan-1-one], the IC50 lay in the range of 100 to 1000 nM. With `CC(Sc1ccc2nnc(-c3ccn(C)n3)n2n1)C(=O)N1CCCCC1` (stereo not shown) [Example 113, 2-((3-(1-methyl-1H-pyrazol-3-yl)-[1,2,4]triazolo[4,3-b]pyridazin-6-yl)thio)-1-(piperidin-1-yl)propan-1-one], the IC50 lay within 100 to 1000 nM. Then `CCCC(Sc1ccc2nnc(-c3cccs3)n2n1)C(=O)N1CCCCC1` (stereo not shown) [Example 93, 1-(piperidin-1-yl)-2-((3-(thiophen-2-yl)-[1,2,4]triazolo[4,3-b]pyridazin-6-yl)thio)pentan-1-one], with 100 to 1000 nM; and `CCC(Sc1ccc2nnc(-c3ccccc3OC)n2n1)C(N)=O` (stereo not shown) [Example 69, 2-((3-(2-methoxyphenyl)-[1,2,4]triazolo[4,3-b]pyridazin-6-yl)thio)butanamide], with at least 5000 nM; and `CCC(Sc1ccc2nnc(-c3ccc(C(F)(F)F)cc3)n2n1)C(=O)N1CCCCC1` (stereo not shown) [Example 95, 1-(piperidin-1-yl)-2-((3-(4-(trifluoromethyl)phenyl)-[1,2,4]triazolo[4,3-b]pyridazin-6-yl)thio)butan-1-one], with 1000 to 5000 nM. On to `CCOC(=O)C(CC)Sc1ccc2nnc(-c3ccc(OC)cc3)n2n1` (stereo not shown) [Example 65, ethyl 2-((3-(4-methoxyphenyl)-[1,2,4]triazolo[4,3-b]pyridazin-6-yl)thio)butanoate], for which the IC50 was at least 5000 nM. Then `CCC(Sc1ccc2nnc(-c3cccs3)n2n1)C(=O)O` (stereo not shown) [Example 18, 2-((3-(thiophen-2-yl)-[1,2,4]triazolo[4,3-b]pyridazin-6-yl)thio)butanoic acid], with 100 to 1000 nM.

Turning to `CCC(Sc1ccc2nnc(-c3ccccc3F)n2n1)C(N)=O` (stereo not shown) [Example 80, 2-((3-(2-fluorophenyl)-[1,2,4]triazolo[4,3-b]pyridazin-6-yl)thio)butanamide], the IC50 was in the range of 100 to 1000 nM. Regarding `CCC(Sc1ccc2nnc(-c3cccs3)n2n1)C(=O)N1CCCC1` (stereo not shown) [Example 46, 1-(pyrrolidin-1-yl)-2-((3-(thiophen-2-yl)-[1,2,4]triazolo[4,3-b]pyridazin-6-yl)thio)butan-1-one], the IC50 is below 100 nM. For `O=C(CSc1ccc2nnc(-c3cccs3)n2n1)N1CCCCC1` [Example 11, 1-(piperidin-1-yl)-2-((3-(thiophen-2-yl)-[1,2,4]triazolo[4,3-b]pyridazin-6-yl)thio)ethanone], the IC50 fell in the range of 100 to 1000 nM. In the case of `NC(=O)CSc1ccc2nnc(-c3ccsc3)n2n1` [Example 5, 2-((3-(thiophen-3-yl)-[1,2,4]triazolo[4,3-b]pyridazin-6-yl)thio)acetamide], the IC50 lay within 100 to 1000 nM.

For `CCC(Sc1ccc2nnc(-c3ccc(F)cc3)n2n1)C(=O)Nc1cnc2ccccc2c1` (stereo not shown) [Example 12], the IC50 was at least 5000 nM. Then `O=C(O)CSc1ccc2nnc(-c3cc4ccccc4s3)n2n1` [Example 30, 2-((3-(benzo[b]thiophen-2-yl)-[1,2,4]triazolo[4,3-b]pyridazin-6-yl)thio)acetic acid], with at least 5000 nM; and `CCOC(=O)C(CC)Sc1ccc2nnc(-c3ccc(F)c(F)c3)n2n1` (stereo not shown) [Example 76, ethyl 2-((3-(3,4-difluorophenyl)-[1,2,4]triazolo[4,3-b]pyridazin-6-yl)thio)butanoate], with 1000 to 5000 nM. Regarding `CCc1ccc(-c2nnc3ccc(SC(CC)C(=O)N4CCCCC4)nn23)s1` (stereo not shown) [Example 87, 2-((3-(5-ethylthiophen-2-yl)-[1,2,4]triazolo[4,3-b]pyridazin-6-yl)thio)-1-(piperidin-1-yl)butan-1-one], the IC50 was in the range of 100 to 1000 nM. With `CCC(Nc1ccc2nnc(-c3cccs3)n2n1)C(=O)N1CCCCC1` (stereo not shown) [Example 100, 1-(piperidin-1-yl)-2-((3-(thiophen-2-yl)-[1,2,4]triazolo[4,3-b]pyridazin-6-yl)amino)butan-1-one] the figure was at least 5000 nM; with `CCC(Sc1ccc2nnc(-c3cccc(OC)c3)n2n1)C(N)=O` (stereo not shown) [Example 72, 2-((3-(3-methoxyphenyl)-[1,2,4]triazolo[4,3-b]pyridazin-6-yl)thio)butanamide], 100 to 1000 nM. As to `CCC(Sc1ccc2nnc(-c3cccs3)n2n1)C(=O)N1CCCC(C)C1` (stereo not shown) [Example 51, 1-(3-methylpiperidin-1-yl)-2-((3-(thiophen-2-yl)-[1,2,4]triazolo[4,3-b]pyridazin-6-yl)thio)butan-1-one], the IC50 fell in the range of 100 to 1000 nM. As for `CC(Sc1ccc2nnc(-c3cccs3)n2n1)C(=O)N1CCC1` (stereo not shown) [Example 101, 1-(azetidin-1-yl)-2-((3-(thiophen-2-yl)-[1,2,4]triazolo[4,3-b]pyridazin-6-yl)thio)propan-1-one], the IC50 is below 100 nM.

As for `CCOC(=O)C(CC)Sc1ccc2nnc(-c3ccccc3F)n2n1` (stereo not shown) [Example 74, ethyl 2-((3-(2-fluorophenyl)-[1,2,4]triazolo[4,3-b]pyridazin-6-yl)thio)butanoate], the IC50 was in the range of 1000 to 5000 nM. Then `CCCC(Sc1ccc2nnc(-c3cccs3)n2n1)C(=O)O` (stereo not shown) [Example 92, 2-((3-(thiophen-2-yl)-[1,2,4]triazolo[4,3-b]pyridazin-6-yl)thio)pentanoic acid], with 100 to 1000 nM; and `CCC(Sc1ccc2nnc(-c3ccc(F)cc3)n2n1)C(=O)N1CCCCC1` (stereo not shown) [Example 9, 2-((3-(4-fluorophenyl)-[1,2,4]triazolo[4,3-b]pyridazin-6-yl)thio)-1-(piperidin-1-yl)butan-1-one], with 1000 to 5000 nM. Turning to `O=C(O)CSc1ccc2nnc(-c3cc4ccccc4o3)n2n1` [Example 31, 2-((3-(benzofuran-2-yl)-[1,2,4]triazolo[4,3-b]pyridazin-6-yl)thio)acetic acid], the IC50 was at least 5000 nM. Then `CCC(Sc1ccc2nnc(-c3ccc(Cl)s3)n2n1)C(=O)O` (stereo not shown) [Example 61, 2-((3-(5-chlorothiophen-2-yl)-[1,2,4]triazolo[4,3-b]pyridazin-6-yl)thio)butanoic acid], with at least 5000 nM; and `CCOC(=O)C(CC)Sc1ccc2nnc(-c3ccc(C(F)(F)F)cc3)n2n1` (stereo not shown) [Example 77, ethyl 2-((3-(4-(trifluoromethyl)phenyl)-[1,2,4]triazolo[4,3-b]pyridazin-6-yl)thio)butanoate], with at least 5000 nM; and `CCC(Nc1ccc2nnc(-c3cccs3)n2n1)C(=O)OC` (stereo not shown) [Example 98, methyl 2-((3-(thiophen-2-yl)-[1,2,4]triazolo[4,3-b]pyridazin-6-yl)amino)butanoate], with at least 5000 nM. As to `CC(Sc1ccc2nnc(-c3cnccn3)n2n1)C(=O)N1CCCCC1` (stereo not shown) [Example 108, 1-(piperidin-1-yl)-2-((3-(pyrazin-2-yl)-[1,2,4]triazolo[4,3-b]pyridazin-6-yl)thio)propan-1-one], the concentration for half-maximal inhibition (IC50) lay in the range of 100 to 1000 nM. Then `CCC(Sc1ccc2nnc(-c3ccc(F)c(F)c3)n2n1)C(=O)N1CCCCC1` (stereo not shown) [Example 96, 2-((3-(3,4-difluorophenyl)-[1,2,4]triazolo[4,3-b]pyridazin-6-yl)thio)-1-(piperidin-1-yl)butan-1-one], with 100 to 1000 nM.
